Values quoted from earlier work in US20100076052A1, “PERINDOPRIL FORMULATIONS” (priority 2008, published 2010).

- solubility in alcohol (alcohol): freely soluble
- solubility in chloroform (chloroform): freely soluble
- solubility in water (water): 60 % w/w
SMILES: CCCC(N[C@@H](C)C(=O)N1[C@H](C(=O)O)C[C@@H]2CCCC[C@@H]21)C(=O)OCC (stereo partly drawn) [Perindopril erbumine, (2S,3αS,7αS)-1-[(S)—N—[(S)-1-carboxybutyl]alanyl]hexahydro-2-indolinecarboxylic acid, 1-ethyl ester, compound with t-butylamine (1:1)]
